Assay results from PubChem BioAssay (NCI).
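The concentration for 50% growth inhibition is given as GI50. TGI is the concentration that stops growth completely.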

Key:
Experiment in all cases: inhibition of tumour cell growth, NCI panel, 384-well format
[1] = system: NCI-H522 lung
[2] = system: MALME-3M melanoma
[3] = system: SK-OV-3 ovarian
[4] = system: NCI-H460 NSCLC
[5] = system: MDA-MB-468 breast
[6] = system: KM12 colon
[7] = system: SF-295 CNS
[8] = system: CAKI-1 renal
[9] = system: SR leukemia
[10] = system: TK-10 renal
[11] = system: PC-3 prostate
[12] = system: SK-MEL-2 melanoma
[13] = system: UACC-257 melanoma
[14] = system: UACC-62 melanoma
[15] = system: CCRF-CEM leukemia
[16] = system: 786-0 renal
[17] = system: OVCAR-3 ovarian
[18] = system: SNB-19 CNS
[19] = system: RXF 393 renal
[20] = system: NCI-H322M lung
[21] = system: BT-549 breast
[22] = system: UO-31 renal
[23] = system: NCI/ADR-RES ovarian
[24] = system: IGROV1 ovarian
[25] = system: T-47D breast
[26] = system: OVCAR-8 ovarian
[27] = system: U251 glioblastoma
[28] = system: SF-539 CNS
[29] = system: OVCAR-5 ovarian
[30] = system: LOX IMVI melanoma
[31] = system: SN12C renal
[32] = system: SW-620 colon
[33] = system: HT29 colon
[34] = system: HL-60(TB) leukemia
[35] = system: HCT-116 colon
[36] = system: HOP-62 NSCLC
[37] = system: MDA-MB-231 breast
[38] = system: MDA-MB-435 melanoma
[39] = system: HOP-92 NSCLC
[40] = system: K-562 leukemia
[41] = system: RPMI-8226 leukemia
[42] = system: NCI-H226 lung
[43] = system: OVCAR-4 ovarian
[44] = system: HCC-2998 colon
[45] = system: HCT-15 colon
[46] = system: COLO 205 colon
[47] = system: A549 NSCLC
[48] = system: SF-268 CNS
[49] = system: MCF7 breast
[50] = system: MOLT-4 leukemia
[51] = system: M14 melanoma
[52] = system: A498 renal
[53] = system: SK-MEL-28 melanoma
[54] = system: NCI-H23 lung
[55] = system: SK-MEL-5 melanoma
[56] = system: ACHN renal
[57] = system: DU-145 prostate

Structure (SMILES): COc1cccc2c1C(=N)c1c(O)c3c(c(O)c1C2=O)C[C@@](O)(C(C)=O)C[C@@H]3O[C@H]1C[C@H](N)[C@H](O)[C@H](C)O1
- GI50 [1]: 55.3 nM
- TGI [1]: 206 nM
- GI50 [2]: 220 nM
- TGI [2]: 953 nM
- GI50 [3]: 88.4 nM
- TGI [3]: 270 nM
- GI50 [4]: 28.2 nM
- TGI [4]: 126 nM
- GI50 [5]: 41.8 nM
- TGI [5]: 153 nM
- GI50 [6]: 66 nM
- TGI [6]: 206 nM
- GI50 [7]: 103 nM
- TGI [7]: 345 nM
- GI50 [8]: 90.9 nM
- TGI [8]: 668 nM
- GI50 [9]: < 10 nM
- TGI [9]: < 10 nM
- GI50 [10]: 128 nM
- TGI [10]: 403 nM
- GI50 [11]: 224 nM
- TGI [11]: 1330 nM
- GI50 [12]: 184 nM
- TGI [12]: 345 nM
- GI50 [13]: 455 nM
- TGI [13]: 1820 nM
- GI50 [14]: 71.6 nM
- TGI [14]: 466 nM
- GI50 [15]: 10.3 nM
- TGI [15]: 22.8 nM
- GI50 [16]: 86.9 nM
- TGI [16]: 244 nM
- GI50 [17]: 102 nM
- TGI [17]: 353 nM
- GI50 [18]: 63.3 nM
- TGI [18]: 376 nM
- GI50 [19]: 41.7 nM
- TGI [19]: 147 nM
- GI50 [20]: 637 nM
- TGI [20]: 2080 nM
- GI50 [21]: 116 nM
- TGI [21]: 335 nM
- GI50 [22]: 707 nM
- TGI [22]: 2090 nM
- GI50 [23]: 7530 nM
- TGI [23]: 25400 nM
- GI50 [24]: 343 nM
- TGI [24]: 2010 nM
- GI50 [25]: 61.1 nM
- TGI [25]: 451 nM
- GI50 [26]: 42.9 nM
- TGI [26]: 745 nM
- GI50 [27]: 50.9 nM
- TGI [27]: 187 nM
- GI50 [28]: 36.6 nM
- TGI [28]: 119 nM
- GI50 [29]: 179 nM
- TGI [29]: 583 nM
- GI50 [30]: 144 nM
- TGI [30]: 338 nM
- GI50 [31]: 48.7 nM
- TGI [31]: 185 nM
- GI50 [32]: 42.8 nM
- TGI [32]: 281 nM
- GI50 [33]: 119 nM
- TGI [33]: 250 nM
- GI50 [34]: < 10 nM
- TGI [34]: < 10 nM
- GI50 [35]: 46.7 nM
- TGI [35]: 1010 nM
- GI50 [36]: 51.3 nM
- TGI [36]: 173 nM
- GI50 [37]: 181 nM
- TGI [37]: 379 nM
- GI50 [38]: 166 nM
- TGI [38]: 1090 nM
- GI50 [39]: 62.9 nM
- TGI [39]: 278 nM
- GI50 [40]: 90.4 nM
- TGI [40]: 452 nM
- GI50 [41]: < 10 nM
- TGI [41]: 22.3 nM
- GI50 [42]: 124 nM
- TGI [42]: 318 nM
- GI50 [43]: 387 nM
- TGI [43]: 1370 nM
- GI50 [44]: 114 nM
- TGI [44]: 272 nM
- GI50 [45]: 417 nM
- TGI [45]: 1560 nM
- GI50 [46]: 44.8 nM
- TGI [46]: 231 nM
- GI50 [47]: 76.1 nM
- TGI [47]: 334 nM
- GI50 [48]: 59.9 nM
- TGI [48]: 262 nM
- GI50 [49]: 61.2 nM
- TGI [49]: 1360 nM
- GI50 [50]: < 10 nM
- TGI [50]: < 10 nM
- GI50 [51]: 73.6 nM
- TGI [51]: 445 nM
- GI50 [52]: 91.9 nM
- TGI [52]: 1070 nM
- GI50 [53]: 131 nM
- TGI [53]: 468 nM
- GI50 [54]: 47.9 nM
- TGI [54]: 200 nM
- GI50 [55]: 97.3 nM
- TGI [55]: 437 nM
- GI50 [56]: 120 nM
- TGI [56]: 567 nM
- GI50 [57]: 108 nM
- TGI [57]: 399 nM
